“Also recorded” adds a separate entry of the source.
Assays:
[1] = Solubility in KPi buffer by NMR with TMSP internal standard; settings: 50 mM KPi aqueous buffer, pH 7, aqueous with cosolvent or surfactant or cyclodextrin, kinetic from dmso stock
Procedure: Stability and solubility assays
transferred to the NMR instrument for acquisition. 1H spectra (16 scans) were recorded every 10 minutes under water suppression conditions. Following acquisition, spectra were analysed using
TopSpin. Normalised integrations of the pyrimidine aromatic 1H signals in the starting material and
product were plotted as a function of time (s), using the TMSP peak as standard for integral
calibration/normalisation and monitoring of compound solubility, allowing extraction of pseudo first
order reaction rate constants (k’). Second order rate constants (k) were back calculated from the ratio
of the pseudo first counterparts and the concentration of thiol in solution.
was confirmed by formation of a single S-arylated product (characteristic 2-alkylthioether signals),
concomitant with formation of the sulfinic acid by -product (leaving group). Hydrolytic stability
assessment was performed at pH 7.0 and pH 8.2 in a similar manner, in the absence of thiol.
Chemoselectivity. Similarly, but replacing GSH by other amino acids , reference 2-
methylsulfonylpyrimidine 4q in 50 mM KPi (pH 8.2) was incubated with 10 equivalents of either Boc-
Lys-OH, L-ser-OMe, N-Ac-Tyr-OH or Proline were used.

FGE-C341S = target: T1, FGE-C341S (Homo sapiens, UniProt Q8NBK3, C341S); assay: Differential scanning fluorimetry (DSF); assay type: binding; settings: 100 μM compound; 10 µM FGE; read-out: Protein thermal stability ΔTm
T1 construct: His7 (C); made in house; host or cells: High Five insect cells (baculovirus, pAcGP67B-His7)
T1 sequence (Q8NBK3 34-374 C341S): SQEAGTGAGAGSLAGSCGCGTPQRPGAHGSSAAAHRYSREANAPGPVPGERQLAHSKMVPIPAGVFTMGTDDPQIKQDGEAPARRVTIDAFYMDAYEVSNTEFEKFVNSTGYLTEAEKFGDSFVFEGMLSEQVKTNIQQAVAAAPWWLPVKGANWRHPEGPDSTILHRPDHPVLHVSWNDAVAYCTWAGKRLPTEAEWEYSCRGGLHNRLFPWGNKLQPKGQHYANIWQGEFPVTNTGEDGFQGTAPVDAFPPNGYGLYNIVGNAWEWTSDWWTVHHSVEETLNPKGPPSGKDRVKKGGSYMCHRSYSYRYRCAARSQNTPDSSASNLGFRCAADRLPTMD
Source text: (§1) We also probed the general effect of 2-SPs on protein stability by using differential scanning fluorimetry (DSF). […] Mutants of the 25 kDa DNA-binding domain of the tumor suppressor p53 are notorious for their reduced thermal stability and denaturation/aggregation propensity.[37] The 56 kDa armadillo domain (ARD) of β-catenin mediates canonical Wnt signaling and plays a central role in embryogenesis and tissue homeostasis.[38] FGE (37 kDa) is the only known activator of human sulfatases, and its stability is susceptible to modification of its cysteines.[39] […]
The cloning of human FGE-WT cDNA into baculoviral transfer vector pAcGP67B-His7 and the generation of the recombinant virus (in Sf9 cells) for expression of C-terminally His-tagged recombinant human FGE in High Five insect cells have been […]
were generated by site -directed PCR mutagenesis using pAcGP67B-FGE-WT-His7 as template and the […]
-3’. All expression plasmids were verified by sequencing of the entire coding region to exclude any undesired PCR -derived errors. The purification method was essentially performed as described in Peng et al., with one modification. The size exclusion […]
chromatography (His -trap) step foll owed directly by a second step purification using the ion -exchange column chromatography (Resource -Q). […]

p53-Y220C = target: T2, p53-Y220C (Homo sapiens, UniProt P04637, M133L/N239Y/N268D/V203A/Y220C); assay: Differential scanning fluorimetry (DSF); assay type: binding; settings: 100 μM compound; 8 µM p53-Y220C; read-out: Protein thermal stability ΔTm
T2 construct: (residues 94-312); 6xHis/lipoyl domain/TEV protease cleavage site (N, cleaved yes); made in house; host or cells: E. coli C41
Source text: as §1
described.7 Briefly, the N-terminal fusion protein (6xHis/lipoyl domain/TEV protease cleavage site) was overexpressed using E. coli C41 cells in 2xTY medium at 20°C for 16 h and purified using standard Ni-affinity chromatography protocols. […]
was further purified using a Heparin column. Finally, gel filtration chromatography was performed using a Superdex 75 16/60 preparative gel filtration column (GE Healthcare) in a 25 mM KPi (pH 7.2), 150 […]
mM NaCl, and 1 mM TCEP buffer. […]
gel electrophoresis and ESI-MS. […]

[2] = GSH arylation rate constants (NMR; UV-vis for fast warheads); assay type: physicochemical; settings: for k: Table S8, rate constants obtained at pH = 7; for k/kref / ΔΔG≠1exp: relative to 4q; for ΔΔG≠1exp: via -RTln(k/kref)
How it was run: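 Second-order rate constants k for GSH arylation derived from pseudo-first-order k′ (warhead:GSH 1:10), by normalized NMR integration of the disappearing warhead signal over 6 h; TMSP internal standard. KPi buffer with 5% d6-DMSO, pH 7.0 and 6.5, 20 °C; UV–vis used for fast warheads. Mean of ≥2 independent runs.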

[3] = pH 6.5, by NMR, KPi buffer, 5% DMSO-d6
[4] = pH 7.0, by NMR, KPi buffer, 5% DMSO-d6
[5] = pH 7.0, ratio to rate constant of 4q, acceleration (+) or deceleration (-)
[6] = pH 6.5, measured by UV titrations
[7] = pH 7.0, measured by UV titrations
[8] = pH 7.0, ratio to 4q, from value measured by UV titrations (footnote a)

## Cc1cc(C)nc(S(C)(=O)=O)n1 [4a]
[1]
  solubility: ≥ 2000 µM
FGE-C341S
  ΔTm at 100 µM: 0 °C
p53-Y220C
  ΔTm at 100 µM: 0 °C
[2]
  k: 0.0010 M⁻¹ s⁻¹
  k/kref: 0.040
  ΔΔG≠1exp: 8.0 kJ/mol
[2]; [3]
  rate constant (k) for the reaction with GSH: 0.00038 ± 8e-05 M⁻¹ s⁻¹
[2]; [4]
  rate constant (k) for the reaction with GSH: 0.001 M⁻¹ s⁻¹
[2]; [5]
  k change (vs ref): -25 fold

## COc1ccnc(S(C)(=O)=O)n1 [4b]
[1]
  solubility: ≥ 2000 µM
FGE-C341S
  ΔTm at 100 µM: 0 °C
p53-Y220C
  ΔTm at 100 µM: 0.2 °C
[2]
  k: 0.0045 M⁻¹ s⁻¹
  k/kref: 0.18
  ΔΔG≠1exp: 4.3 kJ/mol
[2]; [3]
  rate constant (k) for the reaction with GSH: 0.0013 ± 0.0008 M⁻¹ s⁻¹
[2]; [4]
  rate constant (k) for the reaction with GSH: 0.0045 ± 0.0005 M⁻¹ s⁻¹
[2]; [5]
  k change (vs ref): -6 fold

## Cc1ccnc(S(C)(=O)=O)n1 [4c]
[1]
  solubility: ≥ 2000 µM
FGE-C341S
  ΔTm at 100 µM: -0.6 °C
p53-Y220C
  ΔTm at 100 µM: -0.2 ± 0.1 °C
[2]
  k: 0.0043 M⁻¹ s⁻¹
  k/kref: 0.17
  ΔΔG≠1exp: 4.4 kJ/mol
[2]; [3]
  rate constant (k) for the reaction with GSH: 0.0015 ± 0.0005 M⁻¹ s⁻¹
[2]; [4]
  rate constant (k) for the reaction with GSH: 0.0043 ± 0.0008 M⁻¹ s⁻¹
[2]; [5]
  k change (vs ref): -6 fold

## CS(=O)(=O)c1nccc(C(=O)O)n1 [4d]
[1]
  solubility: ≥ 2000 µM
FGE-C341S
  ΔTm at 100 µM: -0.4 ± 0.3 °C
p53-Y220C
  ΔTm at 100 µM: 0.2 °C
[2]
  k: 0.0050 M⁻¹ s⁻¹
  k/kref: 0.20
  ΔΔG≠1exp: 4.0 kJ/mol
[2]; [3]
  rate constant (k) for the reaction with GSH: 0.0015 M⁻¹ s⁻¹
[2]; [4]
  rate constant (k) for the reaction with GSH: 0.005 M⁻¹ s⁻¹
[2]; [5]
  k change (vs ref): -5 fold

## CS(=O)(=O)c1nccc(-c2ccccc2)n1 [4e]
[1]
  solubility: < 2000 µM
FGE-C341S
  ΔTm at 100 µM: -0.2 ± 0.3 °C
p53-Y220C
  ΔTm at 100 µM: 0.2 °C
[2]; [3]
  rate constant (k) for the reaction with GSH: 0.002 ± 0.0005 M⁻¹ s⁻¹
[2]; [4]
  rate constant (k) for the reaction with GSH: 0.005 M⁻¹ s⁻¹
[2]; [5]
  k change (vs ref): -5 fold

## COc1cc(OC)nc(S(C)(=O)=O)n1 [4f, 4,6-dimethoxy-2-methylsulfonylpyrimidine]
[1]
  solubility: ≥ 2000 µM
FGE-C341S
  ΔTm at 100 µM: 0 °C
p53-Y220C
  ΔTm at 100 µM: -0.2 ± 0.1 °C
[2]
  k: 0.010 M⁻¹ s⁻¹
  k/kref: 0.40
  ΔΔG≠1exp: 2.3 kJ/mol
[2]; [3]
  rate constant (k) for the reaction with GSH: 0.003 ± 0.0005 M⁻¹ s⁻¹
[2]; [4]
  rate constant (k) for the reaction with GSH: 0.01 M⁻¹ s⁻¹
[2]; [5]
  k change (vs ref): -3 fold

## CS(=O)(=O)c1nccc(N)n1 [4g]
[1]
  solubility: ≥ 2000 µM
FGE-C341S
  ΔTm at 100 µM: -0.4 ± 0.3 °C
p53-Y220C
  ΔTm at 100 µM: -0.2 ± 0.1 °C
[2]
  k: 0.023 M⁻¹ s⁻¹
  k/kref: 0.92
  ΔΔG≠1exp: 0.21 kJ/mol
[2]; [3]
  rate constant (k) for the reaction with GSH: 0.032 ± 0.006 M⁻¹ s⁻¹
[2]; [4]
  rate constant (k) for the reaction with GSH: 0.023 ± 0.003 M⁻¹ s⁻¹
[2]; [5]
  k change (vs ref): ≈

## CS(=O)(=O)c1ncc(Br)c(C(=O)O)n1 [4i]
FGE-C341S
  ΔTm at 100 µM: -0.6 °C
p53-Y220C
  ΔTm at 100 µM: 0.8 °C
[2]; [3]
  rate constant (k) for the reaction with GSH: 0.075 ± 0.035 M⁻¹ s⁻¹
[2]; [6]
  rate constant (k) for the reaction with GSH: 0.15 ± 0.09 M⁻¹ s⁻¹
[2]; [4]
  rate constant (k) for the reaction with GSH: 0.3 ± 0.013 M⁻¹ s⁻¹
[2]; [7]
  rate constant (k) for the reaction with GSH: 0.64 ± 0.009 M⁻¹ s⁻¹
[2]; [8]
  k change (vs ref): +26 fold
[2]; [5]
  k change (vs ref): +12 fold

## CS(=O)(=O)c1nccc(C(N)=O)n1 [4j]
FGE-C341S
  ΔTm at 100 µM: -0.6 °C
p53-Y220C
  ΔTm at 100 µM: -0.2 ± 0.1 °C
[2]; [3]
  rate constant (k) for the reaction with GSH: 0.095 ± 0.015 M⁻¹ s⁻¹
[2]; [4]
  rate constant (k) for the reaction with GSH: 0.3 ± 0.0025 M⁻¹ s⁻¹
[2]; [5]
  k change (vs ref): +12 fold

## COC(=O)c1ccnc(S(C)(=O)=O)n1 [4k]
[1]
  solubility: ≥ 2000 µM
FGE-C341S
  ΔTm at 100 µM: -0.4 ± 0.3 °C
p53-Y220C
  ΔTm at 100 µM: 0.4 °C
[2]
  k: 2.8 M⁻¹ s⁻¹
  k/kref: 112
  ΔΔG≠1exp: -12 kJ/mol
[2]; [3]
  rate constant (k) for the reaction with GSH: 0.26 ± 0.045 M⁻¹ s⁻¹
[2]; [6]
  rate constant (k) for the reaction with GSH: 0.37 ± 0.063 M⁻¹ s⁻¹
[2]; [7]
  rate constant (k) for the reaction with GSH: 2.8 ± 1.1 M⁻¹ s⁻¹
[2]; [8]
  k change (vs ref): +112 fold

## CS(=O)(=O)c1nccc(C(F)(F)F)n1 [4l]
[1]
  solubility: ≥ 2000 µM
FGE-C341S
  ΔTm at 100 µM: -0.6 °C
p53-Y220C
  ΔTm at 100 µM: 1.8 °C
[2]
  k: 21 M⁻¹ s⁻¹
  k/kref: 840
  ΔΔG≠1exp: -17 kJ/mol
[2]; [6]
  rate constant (k) for the reaction with GSH: 4.9 ± 0.48 M⁻¹ s⁻¹
[2]; pH 7.0, KPi buffer
  second order rate constant k with GSH: ≈ 21 M^–1 s^–1
[2]; [7]
  rate constant (k) for the reaction with GSH: 21 ± 0.6 M⁻¹ s⁻¹
[2]; [8]
  k change (vs ref): +840 fold

## CS(=O)(=O)c1ncc(-c2ccccc2)cn1 [4p]
[1]
  solubility: < 2000 µM
FGE-C341S
  ΔTm at 100 µM: -0.2 ± 0.3 °C
p53-Y220C
  ΔTm at 100 µM: 0.2 °C
[2]; [3]
  rate constant (k) for the reaction with GSH: 0.01 ± 0.005 M⁻¹ s⁻¹
[2]; [4]
  rate constant (k) for the reaction with GSH: 0.012 ± 0.0078 M⁻¹ s⁻¹
[2]; [5]
  k change (vs ref): -2 fold

## CS(=O)(=O)c1ncccn1 [4q, 2-methylsulfonylpyrimidine]
[1]
  solubility: ≥ 2000 µM
FGE-C341S
  ΔTm at 100 µM: -0.6 °C
p53-Y220C
  ΔTm at 100 µM: -0.2 ± 0.1 °C
[2]; GSH
  times faster at pH 7.0 vs 6.5: approximately 5 times
[2]
  k: 0.0250 M⁻¹ s⁻¹
  k/kref: 1
  ΔΔG≠1exp: 0.00 kJ/mol
[2]; [3]
  rate constant (k) for the reaction with GSH: 0.004 ± 0.0016 M⁻¹ s⁻¹
[2]; pH 7.0
  times slower with GSH than with NACME: approximately 3 times
[2]; pH 7.0, KPi buffer
  second order rate constant k with GSH: ≈ 1.6 × 10^–2 M^–1 s^–1; also recorded: ≈ 1.2 × 10^–2 M^–1 s^–1
[2]; [4]
  rate constant (k) for the reaction with GSH: 0.025 ± 0.014 M⁻¹ s⁻¹

## CS(=O)(=O)c1ncc(Br)cn1 [4t]
[1]
  solubility: ≥ 2000 µM
FGE-C341S
  ΔTm at 100 µM: -0.4 ± 0.3 °C
p53-Y220C
  ΔTm at 100 µM: 0.4 °C
[2]
  k: 0.29 M⁻¹ s⁻¹
  k/kref: 12
  ΔΔG≠1exp: -6.1 kJ/mol
[2]; [3]
  rate constant (k) for the reaction with GSH: 0.056 ± 0.034 M⁻¹ s⁻¹
[2]; [4]
  rate constant (k) for the reaction with GSH: 0.29 ± 0.25 M⁻¹ s⁻¹
[2]; [5]
  k change (vs ref): +12 fold

## CS(=O)(=O)c1ncc(I)cn1 [4u]
[1]
  solubility: ≥ 2000 µM
FGE-C341S
  ΔTm at 100 µM: -0.2 ± 0.3 °C
p53-Y220C
  ΔTm at 100 µM: 0.4 °C
[2]; [3]
  rate constant (k) for the reaction with GSH: 0.025 ± 0.01 M⁻¹ s⁻¹
[2]; [4]
  rate constant (k) for the reaction with GSH: 0.66 ± 0.01 M⁻¹ s⁻¹
[2]; [5]
  k change (vs ref): +26 fold

## CS(=O)(=O)c1ncc(C(=O)O)cn1 [4v]
[1]
  solubility: ≥ 2000 µM
FGE-C341S
  ΔTm at 100 µM: -0.4 ± 0.3 °C
p53-Y220C
  ΔTm at 100 µM: 3 °C
[2]
  k: 30 M⁻¹ s⁻¹
  k/kref: 1200
  ΔΔG≠1exp: -18 kJ/mol
[2]; [6]
  rate constant (k) for the reaction with GSH: 6.7 ± 3.1 M⁻¹ s⁻¹
[2]; [7]
  rate constant (k) for the reaction with GSH: 30 ± 3.2 M⁻¹ s⁻¹
[2]; [5]
  k change (vs ref): +1,200 fold
